From ChEMBL document CHEMBL4393655, “Evaluation of synthetic substituted 1,2-dioxanes as novel agents against human leishmaniasis” (Eur J Med Chem, 2019)

Experiments:
[1] = system: Leishmania donovani; assay: Antileishmanial activity against late log/stationary phase of promastigote stage of Leishmania donovani MHOM/NP/02/BPK282/0c14 assessed as parasite growth inhibition after 72 hrs by plate reader based Alamar blue assay; type: functional, organism-based
[2] = (§1) Cytotoxicity against African green monkey Vero cells after 72 hrs by plate reader based Alamar blue assay; type: cell-based; details: chlorocebus sabaeus, Vero cells
[3] = Selectivity index, ratio of CC50 for African green monkey Vero cells to IC50 for Leishmania donovani MHOM/NP/02/BPK282/0c14; type: toxicity; details: for selectivity ratio: Vero cells, read-out: Ratio CC50/IC50
[4] = system: Leishmania infantum; assay: Antileishmanial activity against late log/stationary phase of promastigote stage of Leishmania infantum MHOM/TN/80/IPT1 assessed as parasite growth inhibition after 72 hrs by plate reader based Alamar blue assay; type: functional, organism-based; details: MHOM/TN/80/IPT1, 72 h
[5] = system: Leishmania major; assay: Antileishmanial activity against late log/stationary phase of promastigote stage of Leishmania major MHOM/SU/73/5-ASKH assessed as parasite growth inhibition after 72 hrs by plate reader based Alamar blue assay; type: functional, organism-based
[6] = system: Leishmania tropica; assay: Antileishmanial activity against late log/stationary phase of promastigote stage of Leishmania tropica MHOM/SU/74/K27 assessed as parasite growth inhibition after 72 hrs by plate reader based Alamar blue assay; type: functional, organism-based; details: MHOM/SU/74/K27, 72 h
[7] = system: Leishmania donovani; assay: Antileishmanial activity against amastigote stage of Leishmania donovani MHOM/NP/02/BPK282/0c14 infected in human THP1 cells assessed as parasite growth inhibition after 72 hrs by Giemsa staining-based light microscopic analysis; type: functional, organism-based; details: MHOM/NP/02/BPK282/0c14, THP-1, 72 h
[8] = system: Leishmania donovani; assay: Antileishmanial activity against promastigote stage of Leishmania donovani MHOM/ET/67/HU3 assessed as parasite growth inhibition after 3 days by MTT assay; type: functional, organism-based; details: MHOM/ET/67/HU3, 72 h
[9] = system: Leishmania donovani; assay: Antileishmanial activity against promastigote stage of Leishmania donovani MHOM/IN/83/AG83 assessed as inhibition of parasite viability after 48 hrs by MTS assay; type: functional, organism-based; details: MHOM/IN/83/AG83, 48 h
[10] = system: Leishmania infantum; assay: Antileishmanial activity against promastigote stage of Leishmania infantum MHOM/PT/88/IMT151 as parasite growth inhibition after 48 hrs by MTT assay; type: functional, organism-based; details: MHOM/PT/88/IMT151, 48 h
[11] = system: Leishmania infantum; assay: Antileishmanial activity against amastigote stage of Leishmania infantum MHOM/PT/88/IMT151 infected in human THP-1 cells assessed as parasite growth inhibition after 48 hrs by microscopic analysis; type: functional, organism-based; details: MHOM/PT/88/IMT151, THP-1, 48 h
[12] = system: Vero; assay: as §1; type: cell-based; details: chlorocebus sabaeus, vero, 72 h
[13] = system: Leishmania donovani; assay: Antileishmanial activity against promastigote stage of Leishmania donovani NLB-065 assessed as parasite growth inhibition after 72 hrs by microscopic analysis; type: functional, organism-based; details: NLB-065, 72 h
[14] = system: Leishmania donovani; assay: Antileishmanial activity against promastigote stage of Leishmania donovani assessed as parasite growth inhibition after 72 hrs by resazurin dye based assay; type: functional, organism-based
[15] = Solubility of the compound; type: physicochemical
[16] = Leishmania donovani, MHOM/NP/02/BPK282/0c14, 72 h

| Structure (SMILES) | IC50 [1, 16] | CC50 at 72 h [2] | selectivity ratio [3] | further results |
| --- | --- | --- | --- | --- |
| CCCCC1(CCCC)C[C@@H](CO)[C@](C)(OC)OO1 (racemic) | > 40 µM |  |  |  |
| CO[C@@]1(C)OOC(C)(C)C[C@H]1CNCCCn1ccnc1 (racemic) | > 40 µM |  |  |  |
| CCCCC1(CCCC)C[C@@H](CNCCCn2ccnc2)[C@](C)(OC)OO1 (racemic) | 5.2 µM | 140 µM | 35 | IC50 [4]: 2.5 µM; IC50 [5]: 3.2 µM; IC50 [6]: 3 µM; IC50 [7]: 10.1 µM |
| CO[C@]1(C)OOC2(CC[C@H]3C[C@@H]2C3(C)C)C[C@H]1CNCCCn1ccnc1 (mixture of isomers; form 1) |  | 300 µM | 18.3 | IC50 [1]: 16.4 µM |
| CCN(CC)CCCCCCNc1cc(OC)cc2c(C)ccnc12 [SITAMAQUINE] |  |  |  | IC50 [8]: 36.1 to 179 µM |
| C[C@@H]1CC[C@H]2[C@@H](C)C(=O)O[C@@H]3O[C@@]4(C)CC[C@@H]1[C@]32OO4 [ARTEMISININ] | > 40 µM |  |  | IC50 [9]: 100 to 160 µM |
| CO[C@@]1(C)OOC(c2ccc(F)cc2)(c2ccc(F)cc2)C[C@H]1CNCCCn1ccnc1 (racemic) | 12 µM | 93.6 µM | 7.8 |  |
| CCCCC1(CCCC)C[C@@H](CNCCCn2ccnc2)[C@@](CCCC)(OC)OO1 (racemic) | 6.2 µM | 32.5 µM | 5.2 |  |
| CO[C@@]1(C)OOC(c2ccccc2)(c2ccccc2)C[C@H]1CNCCCn1ccnc1 (racemic) | 7.5 µM | 50 µM | 6.7 |  |
| CCCCC1(CCCC)C[C@@H](COCc2cn(CCC[P+](c3ccccc3)(c3ccccc3)c3ccccc3)nn2)[C@@](C)(OC)OO1 (racemic) | 15.5 µM | 102 µM | 6.6 |  |
| CCCCC1(CCCC)C[C@@H](CNCCCn2ccnc2)[C@@](C)(OC)OO1 (racemic) | 7.5 µM | 74.5 µM | 13.5 | IC50 [4]: 3 µM; IC50 [5]: 11.8 µM; IC50 [6]: 8.9 µM; IC50 [7]: 12.2 µM |
| COC1(C)OOC(c2ccccc2)(c2ccccc2)CC1CO (centres undefined) | > 40 µM |  |  |  |
| C[C@H]1[C@@H](O)O[C@@H]2O[C@@]3(C)CC[C@H]4[C@H](C)CC[C@@H]1[C@@]24OO3 [ARTENIMOL] |  |  |  | IC50 [8]: 4.1 to 20.2 µM |
| CCCCCCCCCCCCCCCCOP(=O)([O-])OCC[N+](C)(C)C [MILTEFOSINE] |  |  |  | IC50 [8]: 1.9 to 68.1 µM |
| CCCCC1(CCCC)C[C@@H](C(=O)OC)[C@@](C)(O)OO1 (racemic) | > 40 µM |  |  |  |
| C=CCO[C@@]1(C(F)(F)F)O[C@@H]2O[C@@]3(C)C[C@H]4[C@H](C)CC[C@@H]([C@H]1C)[C@@]24OO3 |  |  |  | IC50 [8]: 1.6 to 6.25 µM |
| CO[C@@]1(C)OOC(C)(C)C[C@H]1COCc1cn(CCC[P+](c2ccccc2)(c2ccccc2)c2ccccc2)nn1 (racemic) | > 40 µM |  |  |  |
| O=C1CCC2(CC1)OOC1(O2)C2CC3CC(C2)CC1C3 (centres undefined) |  |  |  | IC50 [10]: 9.35 µM; IC50 [11]: 79.8 µM |
| CCCCC1(CCCC)C[C@@H](CO)[C@@](C)(OC)OO1 (racemic) | > 40 µM |  |  |  |
| CCCC[C@]1(OC)OOC(c2ccccc2)(c2ccccc2)C[C@H]1CNCCCn1ccnc1 (racemic) | 4.2 µM | 9.5 µM | 2.3 |  |
| CO[C@]1(C)OOC2(CC[C@H]3C[C@@H]2C3(C)C)C[C@H]1CNCCCn1ccnc1 (mixture of isomers; form 2) |  |  |  | IC50 [1]: 8 µM; CC50 [12]: 276 µM; Ratio CC50/IC50 ([3]; vero): 34.6; IC50 [4]: 5 µM; IC50 [5]: 25 µM; IC50 [6]: 24 µM; IC50 [7]: 9.7 µM |

| Structure (SMILES) | IC50 [1, 16] | CC50 at 72 h [2] | selectivity ratio [3] | further results |
| --- | --- | --- | --- | --- |
| CCCCC1(CCCC)C[C@@H](CNCCCn2cncn2)[C@@](C)(OC)OO1 (racemic) | > 40 µM |  |  |  |
| CCCCC1(CCCC)C[C@@H](COCc2cn(CCC[P+](c3ccccc3)(c3ccccc3)c3ccccc3)nn2)[C@](C)(OC)OO1 (racemic) | 40 µM | 200 µM | 5 |  |
| C[C@@H]1[C@H](O)[C@@H](C)/C=C/C=C/C=C/C=C/C=C/C=C/C=C/[C@H](O[C@@H]2O[C@H](C)[C@@H](O)[C@H](N)[C@@H]2O)C[C@@H]2O[C@](O)(C[C@@H](O)C[C@@H](O)[C@H](O)CC[C@@H](O)C[C@@H](O)CC(=O)O[C@H]1C)C[C@H](O)[C@H]2C(=O)O [AMPHOTERICIN B] | 0.3 µM |  | 667 | IC50 [8]: 0.03 to 2.8 µM |
| C[C@H]1[C@H](OC(=O)CCC(=O)O)O[C@@H]2O[C@@]3(C)CC[C@H]4[C@H](C)CC[C@@H]1[C@@]24OO3 [SODIUM ARESUNATE] | > 40 µM |  |  | IC50 [13]: 12.1 µM |
| CO[C@@]1(C)OOC(c2ccccc2)(c2ccccc2)C[C@H]1COCc1cn(CCC[P+](c2ccccc2)(c2ccccc2)c2ccccc2)nn1 (racemic) | 13.8 µM | 280 µM | 24.3 | IC50 [4]: 10 µM; IC50 [5]: 2.6 µM; IC50 [6]: 6 µM; IC50 [7]: 16.5 µM |
| NC[C@@H]1O[C@H](O[C@H]2[C@@H](O)[C@H](O[C@@H]3[C@@H](O)[C@H](N)C[C@H](N)[C@H]3O[C@H]3O[C@H](CO)[C@@H](O)[C@H](O)[C@H]3N)O[C@@H]2CO)[C@H](N)[C@@H](O)[C@@H]1O [PAROMOMYCIN] |  |  |  | IC50 [14]: 19.7 to 28.1 µM |
| CCCCC1(O)OOC(c2ccccc2)(c2ccccc2)CC1C(=O)OC (centres undefined) |  |  |  | solubility [15]: Insoluble |
| CO[C@@]1(C)OOC2(CC[C@H]3C[C@@H]2C3(C)C)C[C@H]1CNCCCn1ccnc1 (mixture of isomers) | 16.3 µM | 274 µM | 16.8 | IC50 [4]: 6 µM; IC50 [5]: 15.5 µM; IC50 [6]: 35 µM; IC50 [7]: 23.5 µM |
| CCCCC1(CCCC)C[C@@H](C(=O)OC)[C@@](C)(OC)OO1 (racemic) | > 40 µM |  |  |  |
| CCCCC1(CCCC)C[C@@H](COCc2cn(CC(O)(Cn3cncn3)c3ccc(F)cc3F)nn2)[C@@](C)(OC)OO1 (mixture of isomers) | 16 µM | 195 µM | 12.2 | IC50 [4]: 12 µM; IC50 [5]: 38.4 µM; IC50 [6]: 38 µM; IC50 [7]: 13 µM |
| CCCC[C@]1(OC)OOC(C)(C)C[C@H]1CNCCCn1ccnc1 (racemic) | > 40 µM |  |  |  |
| CCCCC1(CCCC)C[C@@H](CNCCCNc2ccnc3cc(Cl)ccc23)[C@@](C)(OC)OO1 (racemic) | 1.6 µM | 4 µM | 2.5 |  |
| COC(=O)C1CC(c2ccccc2)(c2ccccc2)OOC1(C)O (centres undefined) | > 40 µM |  |  |  |
| COc1ccc(N[C@@]2(C(F)(F)F)O[C@@H]3O[C@@]4(C)C[C@H]5[C@H](C)CC[C@@H]([C@H]2C)[C@@]35OO4)cc1 |  |  |  | IC50 [8]: 0.38 to 1.5 µM |
| C=CCO[C@@]1(C(F)(F)F)O[C@@H]2O[C@@]3(C)C[C@H]4[C@H](C)CC[C@@H](C1=C)[C@@]24OO3 |  |  |  | IC50 [8]: 5.5 to 12.4 µM |
| OC(Cn1cncn1)(Cn1cncn1)c1ccc(F)cc1F [FLUCONAZOLE] | > 40 µM |  |  |  |
| CCCCC1(CCCC)C[C@@H](C(=O)OC)[C@](C)(OC)OO1 (racemic) | > 40 µM |  |  |  |
| COC(=O)C1CC(c2ccccc2)(c2ccccc2)OOC1(C)OC (centres undefined) | > 40 µM |  |  |  |
| C[C@@H]1CC[C@H]2[C@@H](C)[C@](OO)(C(F)(F)F)O[C@@H]3O[C@@]4(C)C[C@@H]1[C@]32OO4 |  |  |  | IC50 [8]: 2.5 to 12.5 µM |
| NCC1CC[C@]2(CC1)OO[C@]1(O2)C2CC3CC(C2)CC1C3 (some centres undefined) |  |  |  | IC50 [10]: 3.51 µM; IC50 [11]: 108 µM |
